Experimental data published in PubChem BioAssay AID330 (DTP/NCI, 2004).
Values joined by “and” are separate entries in the source; they are usually repeats but may differ in a detail not shown here. Equal values may be shown once. Inconclusive results and toxic doses are left out. The calls were made as follows: active = survival T/C of 150% or more; inactive = T/C below 125% in these data.

Tested on: P388 leukemia ip, CD2F1 mice, survival T/C
Experiment: NCI In Vivo Anticancer Drug Screen. Data for tumor model P388 Leukemia (intraperitoneal) in CD2F1 (CDF1) mice
Settings: endpoint: median survival time, higher = longer survival
How it was run: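 Mice carrying the transplanted tumor received test compound or vehicle. Survival was recorded in each group, and the value is the treated-group measurement divided by that of the vehicle-treated control group.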

[1] = dose: 12.5 mg/kg/injection, schedule: Q01DX009 (ip), vehicle: Klucel (hydroxypropylcellulose) (HPC)
[2] = dose: 25.0 mg/kg/injection, schedule: Q01DX009 (ip), vehicle: Klucel (hydroxypropylcellulose) (HPC)
[3] = dose: 50.0 mg/kg/injection, schedule: Q01DX009 (ip), vehicle: saline
[4] = dose: 100.0 mg/kg/injection, schedule: Q01DX009 (ip), vehicle: saline
[5] = dose: 200.0 mg/kg/injection, schedule: Q01DX009 (ip), vehicle: saline
[6] = dose: 100.0 mg/kg/injection, schedule: Q01DX009 (ip), vehicle: saline with Tween-80
[7] = dose: 50.0 mg/kg/injection, schedule: Q01DX005 (ip), vehicle: saline
[8] = dose: 100.0 mg/kg/injection, schedule: Q01DX005 (ip), vehicle: saline
[9] = dose: 200.0 mg/kg/injection, schedule: Q01DX005 (ip), vehicle: saline
[10] = dose: 50.0 mg/kg/injection, schedule: Q01DX005 (ip), vehicle: Klucel (hydroxypropylcellulose) (HPC)
[11] = dose: 100.0 mg/kg/injection, schedule: Q01DX005 (ip), vehicle: Klucel (hydroxypropylcellulose) (HPC)
[12] = dose: 200.0 mg/kg/injection, schedule: Q01DX005 (ip), vehicle: Klucel (hydroxypropylcellulose) (HPC)
[13] = dose: 100.0 mg/kg/injection, schedule: Q04DX002 (ip), vehicle: saline with Tween-80
[14] = dose: 200.0 mg/kg/injection, schedule: Q04DX002 (ip), vehicle: saline with Tween-80
[15] = dose: 400.0 mg/kg/injection, schedule: Q04DX002 (ip), vehicle: saline with Tween-80
[16] = dose: 100.0 mg/kg/injection, schedule: Q04DX003 (ip), vehicle: saline with Tween-80
[17] = dose: 200.0 mg/kg/injection, schedule: Q04DX003 (ip), vehicle: saline with Tween-80
[18] = dose: 400.0 mg/kg/injection, schedule: Q04DX003 (ip), vehicle: saline with Tween-80
[19] = dose: 100.0 mg/kg/injection, schedule: Q01DX001 (ip), vehicle: Klucel (hydroxypropylcellulose) (HPC)
[20] = dose: 400.0 mg/kg/injection, schedule: Q01DX001 (ip), vehicle: Klucel (hydroxypropylcellulose) (HPC)
[21] = dose: 200.0 mg/kg/injection, schedule: Q01DX001 (ip), vehicle: Klucel (hydroxypropylcellulose) (HPC)

Measured: T/C

c1cc2ccc1CCc1ccc(cc1)CC2
inactive: dose: 100.0 mg/kg/injection, schedule: Q01DX001 (ip), vehicle: saline sonified 90 % of control | dose: 200.0 mg/kg/injection, schedule: Q01DX001 (ip), vehicle: saline sonified 100 % of control | dose: 400.0 mg/kg/injection, schedule: Q01DX001 (ip), vehicle: saline sonified 100 % of control

CCN(CC)C(=S)SCc1cc(C)c(O)c(C)c1
inactive: dose: 100.0 mg/kg/injection, schedule: Q01DX001 (ip), vehicle: saline 98 % of control | dose: 200.0 mg/kg/injection, schedule: Q01DX001 (ip), vehicle: saline 100 % of control | dose: 400.0 mg/kg/injection, schedule: Q01DX001 (ip), vehicle: saline 100 % of control

C/C(=N\N=P(c1ccccc1)(c1ccccc1)c1ccccc1)C(C)(C)C
inactive: dose: 6.25 mg/kg/injection, schedule: Q01DX009 (ip), vehicle: Klucel (hydroxypropylcellulose) (HPC) 100 % of control | [1] 95 % of control | [2] 94 % of control

[NH-]C(C[S-])C(=O)O.[NH-]C(C[S-])C(=O)O.[O]=[Mo]1[O][Mo](=[O])[O]1 (centres undefined)
inactive: [3] 99 % of control | [4] 90 % of control | [5] 104 % of control

CC(C)(O)[C@@H]1CC(=O)[C@]2(C)[C@H](CC[C@@]3(C)C(c4ccoc4)OC(=O)[C@H]4O[C@]432)[C@@]1(C)/C=C/C(=O)O (some centres undefined)
inactive: dose: 0.75 mg/kg/injection, schedule: Q01DX009 (ip), vehicle: saline + alcohol 98 % of control | dose: 1.5 mg/kg/injection, schedule: Q01DX009 (ip), vehicle: saline + alcohol 100 % of control | dose: 3.0 mg/kg/injection, schedule: Q01DX009 (ip), vehicle: saline + alcohol 97 % of control | dose: 6.0 mg/kg/injection, schedule: Q01DX009 (ip), vehicle: saline + alcohol 99 % of control

O=C(O)C(F)(F)F
inactive: [6] 90 % of control | dose: 200.0 mg/kg/injection, schedule: Q01DX009 (ip), vehicle: saline with Tween-80 95 % of control | dose: 400.0 mg/kg/injection, schedule: Q01DX009 (ip), vehicle: saline with Tween-80 90 % of control

O=Cc1c[nH]c2ccc(Br)cc12
inactive: dose: 100.0 mg/kg/injection, schedule: Q01DX001 (ip), vehicle: other 100 % of control | dose: 200.0 mg/kg/injection, schedule: Q01DX001 (ip), vehicle: other 90 % of control | dose: 400.0 mg/kg/injection, schedule: Q01DX001 (ip), vehicle: other 100 % of control

OCC1=CCN2CC[C@@H](O)[C@@H]12
inactive: [7] 93 % of control | [8] 107 % of control | [9] 93 % of control

COC(=O)CCSC(=O)Nc1ccc(C)cc1
inactive: [10] 101 % of control | [11] 100 % of control | [12] 105 % of control

O=C1CSC(c2c(Cl)cccc2[N+](=O)[O-])N1c1nncs1 (centres undefined)
inactive: [13] 87 % of control | [14] 87 % of control | [15] 92 % of control

O[P+]1(c2ccccc2)OC(C(F)(F)F)(C(F)(F)F)C(C(F)(F)F)(C(F)(F)F)O1
inactive: [3] 108 % of control | [4] 99 % of control | [5] 107 % of control

COc1cc(C(=O)CC2=NC3NN(c4ccccc4)C(=O)C3=C2CC(=O)c2ccc(O)c(OC)c2)ccc1O (centres undefined)
inactive: dose: 60.0 mg/kg/injection, schedule: Q01DX005 (ip), vehicle: saline 100 % of control | dose: 120.0 mg/kg/injection, schedule: Q01DX005 (ip), vehicle: saline 102 % of control | dose: 240.0 mg/kg/injection, schedule: Q01DX005 (ip), vehicle: saline 98 % of control

CC1C2CCC3C(O)C2(CC(O)C2(O)C1CC(O)C2(C)C)CC3(C)O (centres undefined)
inactive: dose: 0.25 mg/kg/injection, schedule: Q01DX009 (ip), vehicle: Klucel (hydroxypropylcellulose) (HPC) 101 % of control | dose: 0.5 mg/kg/injection, schedule: Q01DX009 (ip), vehicle: Klucel (hydroxypropylcellulose) (HPC) 93 % of control | dose: 1.0 mg/kg/injection, schedule: Q01DX009 (ip), vehicle: Klucel (hydroxypropylcellulose) (HPC) 95 % of control

COc1ccc(N2CC[N+](c3ccc(N(C)C)cc3)=C2C2=[N+](c3ccc(N(C)C)cc3)CCN2c2ccc(OC)cc2)cc1
inactive: [1] 91 % of control | [2] 91 % of control | dose: 50.0 mg/kg/injection, schedule: Q01DX009 (ip), vehicle: Klucel (hydroxypropylcellulose) (HPC) 91 % of control

CC(C)COC(=O)CN(CC(=O)OCC(C)C)c1ccccc1
inactive: [16] 109 % of control | [17] 104 % of control | [18] 113 % of control

CC(O)CC1(c2ccccc2)CNC(=O)NC1=O (centres undefined)
inactive: dose: 25.0 mg/kg/injection, schedule: Q01DX001 (ip), vehicle: Klucel (hydroxypropylcellulose) (HPC) 94 % of control | dose: 50.0 mg/kg/injection, schedule: Q01DX001 (ip), vehicle: Klucel (hydroxypropylcellulose) (HPC) 94 % of control | [19] 99 % of control and 106 % of control | [20] 92 % of control

Cc1cc(Cl)c(C)c(Cl)c1Cl
inactive: [16] 95 % of control | [17] 95 % of control | [18] 91 % of control

CC(=O)N(C)c1ccc(N)c2c1C(=O)c1ccccc1C2=O
inactive: [10] 106 % of control | [11] 94 % of control | [12] 106 % of control

C[C@H]1C(=O)N(C)C(=O)[C@@H]1N
inactive: [7] 97 % of control | [8] 97 % of control | [9] 95 % of control

NC(=S)c1cccc(C2Nc3ccccc3S2)c1 (centres undefined)
inactive: [13] 94 % of control | [14] 95 % of control | [15] 96 % of control

COc1cccc(CCCC(=O)O)c1
inactive: dose: 100.0 mg/kg/injection, schedule: Q01DX009 (ip), vehicle: Klucel (hydroxypropylcellulose) (HPC) 100 % of control | dose: 200.0 mg/kg/injection, schedule: Q01DX009 (ip), vehicle: Klucel (hydroxypropylcellulose) (HPC) 100 % of control | dose: 400.0 mg/kg/injection, schedule: Q01DX009 (ip), vehicle: Klucel (hydroxypropylcellulose) (HPC) 104 % of control

NC(=O)CN1CCN(c2ccnc3cc(Cl)ccc23)CC1
inactive: dose: 25.0 mg/kg/injection, schedule: Q04DX002 (ip), vehicle: saline with Tween-80 101 % of control | dose: 50.0 mg/kg/injection, schedule: Q04DX002 (ip), vehicle: saline with Tween-80 99 % of control | [13] 99 % of control and 103 % of control

CC(C)N[C@@H]1CCC[C@H]1O
inactive: [19] 105 % of control | [21] 113 % of control | [20] 115 % of control

COc1c2cc(O)cc1CCCC1=CC(=O)C=C(CCC2)C1=O
inactive: [19] 99 % of control | [21] 99 % of control | [20] 108 % of control

CCCCOC1OCN(CCC)CC1(C)C (centres undefined)
inactive: dose: 50.0 mg/kg/injection, schedule: Q01DX009 (ip), vehicle: saline with Tween-80 111 % of control and 113 % of control | [6] 122 % of control

c1cc(CSC2=NCCN2)c2cccc(CSC3=NCCN3)c2c1
inactive: dose: 12.5 mg/kg/injection, schedule: Q01DX005 (ip), vehicle: Klucel (hydroxypropylcellulose) (HPC) 103 % of control | dose: 25.0 mg/kg/injection, schedule: Q01DX005 (ip), vehicle: Klucel (hydroxypropylcellulose) (HPC) 107 % of control | [10] 103 % of control and 112 % of control
